The nature of data set [1]: Cytotoxicity against African green monkey Vero cells infected in Pichinde virus AN 4763 by neutral red dye based analysis. Type of data set: toxicity, cell-based. Conditions: chlorocebus sabaeus, Vero cells infected with Pichinde virus AN 4763.
Data set [2] deals with Rift Valley fever virus. As to the kind of experiment: Antiviral activity against Rift Valley fever virus MP-12 infected in African green monkey Vero 76 cells. In kind it is functional, organism-based.
Data set [3] has as its system Measles morbillivirus. As to the kind of experiment: Antiviral activity against Measles virus CC infected in African green monkey Vero 76 cells by visual analysis. Type of data set: functional, organism-based.
A further data set concerns Hepatitis B virus. Description: Antiviral activity against HBV ayw1 infected in human HepG2.2.15 cells. Type of data set: functional, organism-based. Conditions: ayw1, HepG2.2.15.
Data set [4] concerns Rift Valley fever virus. As to the kind of experiment: Antiviral activity against Rift Valley fever virus MP-12 infected in African green monkey Vero 76 cells by neutral red dye based analysis. Conditions: MP-12, Vero 76. In kind it is functional, organism-based.
Data set [5] deals with Venezuelan equine encephalitis virus. As to the kind of experiment: Antiviral activity against Venezuelan equine encephalitis virus TC-83 infected in African green monkey Vero 76 cells. Type of data set: functional, organism-based.
Data set [6] has as its system Tacaribe virus. Description: Antiviral activity against Tacaribe virus TRVL11573 infected in African green monkey Vero cells by neutral red dye based analysis. The following applies: Mammarenavirus tacaribeense. Type of data set: functional, organism-based.
A short description of data set [7]: Selectivity index, ratio of CC50 for cytotoxicity against African green monkey Vero 76 cells infected with Measles virus CC by visual analysis to EC50 for antiviral activity against Measles virus CC infected in African green monkey Vero 76 cells by visual analysis. In kind it is toxicity, cell-based. The following applies: read-out: Ratio CC50/EC50.
Data set [8] relates to Pichinde virus. Description: Antiviral activity against Pichinde virus AN 4763 infected in African green monkey Vero cells by visual analysis. In kind it is functional, organism-based. Conditions: AN 4763, Vero.
The nature of data set [9]: Cytotoxicity against African green monkey Vero cells infected with Tacaribe virus TRVL11573 by neutral red dye based analysis. In kind it is toxicity, cell-based. The following applies: chlorocebus sabaeus.
In data set [10] the test system is Human betaherpesvirus 5. Description: Antiviral activity against Human betaherpesvirus 5 AD 169 infected in HFF cells. Type of data set: functional, organism-based.
For data set [11], the system named is Middle East respiratory syndrome-related coronavirus. As to the kind of experiment: Antiviral activity against Middle East respiratory syndrome-related coronavirus EMC infected in African green monkey Vero 76 cells. In kind it is functional, organism-based.
A short description of data set [12]: Selectivity index, ratio of CC50 for cytotoxicity against African green monkey Vero cells infected with Tacaribe virus TRVL11573 by neutral red dye based analysis to EC50 for antiviral activity against Tacaribe virus TRVL11573 infected in African green monkey Vero cells by neutral red dye based analysis. The following applies: read-out: Ratio CC50/EC50. Type of data set: toxicity, cell-based.

Data set [13] is described as follows: Selectivity index, ratio of CC50 for cytotoxicity against African green monkey Vero 76 cells infected with Rift Valley fever virus MP-12 by neutral red dye based analysis to EC50 for antiviral activity against Rift Valley fever virus MP-12 infected in African green monkey Vero 76 cells by neutral red dye based analysis. Type of data set: toxicity, cell-based. Conditions: read-out: Ratio CC50/EC50.

Data set [14] can be described thus: Selectivity index, ratio of CC50 for cytotoxicity against African green monkey Vero cells infected with Tacaribe virus TRVL11573 by visual analysis to EC50 for antiviral activity against Tacaribe virus TRVL11573 infected in African green monkey Vero cells by visual analysis. Type of data set: toxicity, cell-based. The following applies: read-out: Ratio CC50/EC50.

Data set [15] in a line: Cytotoxicity against human HepG2.2.15 cells. Type of data set: toxicity, cell-based, HepG2 2.2.15.
Data set [16] deals with Rift Valley fever virus. As to the kind of experiment: Antiviral activity against Rift Valley fever virus MP-12 infected in African green monkey Vero 76 cells by visual analysis. In kind it is functional, organism-based. Conditions: MP-12, Vero 76.
In the next data set the test system is dengue virus type 2. As to the kind of experiment: Antiviral activity against Dengue virus 2 New Guinea infected in human Huh-7 cells. Type of data set: functional, organism-based.
Another data set concerns Lassa virus. As to the kind of experiment: Antiviral activity against Lassa virus Josiah infected in African green monkey Vero cells. The following applies: Mammarenavirus lassaense. Type of data set: functional, organism-based.
In data set [17] the test system is Tacaribe virus. As to the kind of experiment: Antiviral activity against Tacaribe virus TRVL11573 infected in African green monkey Vero cells. The following applies: Mammarenavirus tacaribeense. In kind it is functional, organism-based.
The test system of data set [18] is Measles morbillivirus. Description: Antiviral activity against Measles virus CC infected in African green monkey Vero 76 cells by neutral red dye based analysis. In kind it is functional, organism-based.
Data set [19] can be described thus: Cytotoxicity against African green monkey Vero 76 cells infected with Measles virus CC by neutral red dye based analysis. Type of data set: toxicity, cell-based. Conditions: chlorocebus sabaeus.
The next data set deals with Punta Toro virus. Description: Antiviral activity against Punta Toro virus Adames infected in African green monkey Vero 76 cells. In kind it is functional, organism-based.
The test system of data set [20] is Tacaribe virus. Description: Antiviral activity against Tacaribe virus TRVL11573 infected in African green monkey Vero cells by visual analysis. Type of data set: functional, organism-based. Conditions: Mammarenavirus tacaribeense.
A short description of data set [21]: Selectivity index, ratio of CC50 for cytotoxicity against African green monkey Vero 76 cells infected with Rift Valley fever virus MP-12 by visual analysis to EC50 for antiviral activity against Rift Valley fever virus MP-12 infected in African green monkey Vero 76 cells by visual analysis. Conditions: read-out: Ratio CC50/EC50. Type of data set: toxicity, cell-based.

The nature of data set [22]: Selectivity index, ratio of CC50 for cytotoxicity against African green monkey Vero cells infected with Pichinde virus AN 4763 by neutral red dye based analysis to EC50 for antiviral activity against Pichinde virus AN 4763 infected in African green monkey Vero cells by neutral red dye based analysis. Type of data set: toxicity, cell-based. The following applies: read-out: Ratio CC50/EC50.

Data set [23] is described as follows: Cytotoxicity against African green monkey Vero 76 cells infected with Rift Valley fever virus MP-12 by neutral red dye based analysis. Type of data set: toxicity, cell-based. Conditions: chlorocebus sabaeus.
The nature of data set [24]: Cytotoxicity against African green monkey Vero cells infected with Tacaribe virus TRVL11573 by visual analysis. In kind it is toxicity, cell-based. Conditions: chlorocebus sabaeus.
Data set [25] can be described thus: Selectivity index, ratio of CC50 for cytotoxicity against human HepG2.2.15 cells to EC50 for antiviral activity against HBV ayw1 infected in human HepG2.2.15 cells. Type of data set: toxicity, cell-based. The following applies: read-out: Ratio CC50/EC50.
The test system of data set [26] is Japanese encephalitis virus. Description: Antiviral activity against Japanese encephalitis virus SA 14 infected in African green monkey Vero 76 cells. In kind it is functional, organism-based.
Data set [27] is described as follows: Cytotoxicity against African green monkey Vero cells infected in Pichinde virus AN 4763 by visual analysis. In kind it is toxicity, cell-based. The following applies: chlorocebus sabaeus, Vero cells infected with Pichinde virus AN 4763.
A further data set deals with Chikungunya virus. Description: Antiviral activity against Chikungunya virus S27 infected in African green monkey Vero 76 cells. In kind it is functional, organism-based.
Data set [28] can be described thus: Cytotoxicity against African green monkey Vero 76 cells infected with Rift Valley fever virus MP-12 by visual analysis. In kind it is toxicity, cell-based. The following applies: chlorocebus sabaeus.
Data set [29] can be described thus: Selectivity index, ratio of CC50 for cytotoxicity against African green monkey Vero cells infected with Pichinde virus AN 4763 by visual analysis to EC50 for antiviral activity against Pichinde virus AN 4763 infected in African green monkey Vero cells by visual analysis. Type of data set: toxicity, cell-based. The following applies: read-out: Ratio CC50/EC50.

A short description of data set [30]: Cytotoxicity against African green monkey Vero 76 cells infected with Measles virus CC by visual analysis. In kind it is toxicity, cell-based. Conditions: chlorocebus sabaeus.
Data set [31] concerns Pichinde virus. Description: Antiviral activity against Pichinde virus AN 4763 infected in African green monkey Vero cells by neutral red dye based analysis. Type of data set: functional, organism-based. Conditions: AN 4763, Vero.
Data set [32] in a line: Selectivity index, ratio of CC50 for cytotoxicity against African green monkey Vero 76 cells by neutral red dye based analysis to EC50 for antiviral activity against Measles virus CC infected in African green monkey Vero 76 cells by neutral red dye based analysis. Type of data set: toxicity, cell-based. Conditions: read-out: Ratio CC50/EC50.
A short description of data set [33]: Selectivity index, ratio of CC50 for cytotoxicity against human HG23 cells infected with Norovirus Genogroup 1 to EC50 for antiviral activity against Norovirus Genogroup 1 infected in human HG23 cells. In kind it is toxicity, cell-based. Conditions: read-out: Ratio CC50/EC50.
For the next data set, the system named is Norovirus. Description: Antiviral activity against Norovirus Genogroup 1 infected in human HG23 cells. Type of data set: functional, organism-based. Conditions: Genogroup 1, HG23.
Data set [34] can be described thus: Cytotoxicity against human HG23 cells infected with Norovirus Genogroup 1. Type of data set: toxicity, cell-based.
A further data set has as its system Influenza A virus. Description: Antiviral activity against influenza A virus H5N1. Type of data set: functional, organism-based.
In data set [35] the test system is Tacaribe virus. Description: Antiviral activity against Tacaribe virus. In kind it is functional, organism-based. Conditions: Mammarenavirus tacaribeense.
Data set [36] concerns Human betaherpesvirus 5. As to the kind of experiment: Antiviral activity against Human betaherpesvirus 5. Type of data set: functional, organism-based.
The subject of data set [37] is Rift Valley fever virus. Description: Antiviral activity against Rift Valley fever virus. In kind it is functional, organism-based.
The next data set deals with Influenza B virus. Description: Antiviral activity against influenza B virus. In kind it is functional, organism-based.

Calls of active or inactive are those of the source. No cut-off for these calls is given here. Some results are limits rather than exact numbers.

Usually CC50 stands for the concentration at which the toxic effect on the cells reaches its halfway point. A word on the EC50: it is the concentration needed to bring the measured effect to its halfway point.

With `Nc1nc(F)cc2c1ncn2C1=C[C@H](CO)[C@@H](O)[C@H]1O`, the CC50 is 50 µM in [1]; 50 µM in data set [9]; 48.2 µM in data set [15]; 36 µM in data set [19]; 132 µM in data set [23]; 75 µM in [24]. For the same molecule, the CC50 stood at 46 µM in data set [27], 114 µM in [28] and 114 µM in [30]. Moreover, the result (in the data set with Rift Valley fever virus [2]; in data set [5]; with Human betaherpesvirus 5 [10]; in [11]; in the data set with dengue virus type 2; in the data set with Lassa virus) was inactive. Also, the outcome (in the data set on Tacaribe virus [17]; in the data set on Punta Toro virus; in [26]; in the data set with Chikungunya virus) was inactive. The EC50 in the data set with Measles morbillivirus [3] worked out at 0.36 µM; in the data set on Hepatitis B virus, 0.43 µM; in the data set with Rift Valley fever virus [4] it was 33.2 µM; with Tacaribe virus [6], 8.6 µM; in the data set on Pichinde virus [8] it was 3.32 µM; with Rift Valley fever virus [16], 22.1 µM. In addition, the EC50 in the data set with Measles morbillivirus [18] was 0.39 µM; with Tacaribe virus [20], 10.7 µM; with Pichinde virus [31], 2.57 µM. For the same molecule, the selectivity ratio in [7] was determined as 320; in data set [12], 5.8; in data set [13] it was 4; in [14], 7; in data set [21], 5.2; in data set [22] it was 19. The values for the selectivity ratio in data set [25], in data set [29] and in data set [32] were 113, 14 and 91, respectively.

Turning to `C[C@@]1(O)[C@H](O)[C@@H](CO)O[C@H]1n1ccc(N)nc1=O`, the selectivity ratio in data set [33] is over 22. This molecule came in with an EC50 in the data set on Norovirus of 1.23 µM. For the same molecule, the CC50 in [34] is over 25 µM.

With `Nc1nc(F)cc2c1ncn2[C@@H]1C=C(CO)[C@@H](O)[C@H]1O`, the outcome in the data set on Influenza A virus, with Tacaribe virus [35], in the data set on Human betaherpesvirus 5 [36], with Rift Valley fever virus [37] and in the data set with Influenza B virus was Active.

Regarding `Nc1ccn([C@@H]2CS[C@H](CO)O2)c(=O)n1` [LAMIVUDINE], in the data set with Hepatitis B virus, the response was half-maximal at 0.02 µM (EC50). This molecule registered a CC50 in data set [15] of over 2 µM. In addition, the selectivity ratio in [25] is over 99.
